Here are results for 9 compounds from the NIST ThermoML archive (doi:10.1016/j.tca.2018.08.022).

Data set [1] is described as follows: Molar enthalpy of transition or fusion. The settings on record: DSC.
For data set [2] the following is noted: for mass density: 101.33 kPa, X-ray diffraction.

Each structure is given as a SMILES string. ± gives the expanded uncertainty stated by the source.

Usually mass density stands for the mass of a sample divided by its volume. On to `CCN(CC)c1ccc(N=Nc2ccc(-c3ccc(C#N)c(C#N)c3)c(C#N)c2)cc1`, for which the “Molar enthalpy of transition or fusion” value in data set [1] (Crystal 1) came out at 8.13 ± 0.287 kcal/mol; in data set [1] (Crystal 2) it was 1.31 ± 0.0717 kcal/mol. For the same compound, the mass density in data set [2] (296 K, Crystal 2) was found to be 1217 ± 8 kg/m3. The Triple point temperature in data set [2] (Crystal 1, DSC) turned out to be 503.45 ± 0.8 K; in data set [2] (Crystal 2, DSC), 487.95 ± 0.8 K; in data set [2] (Metastable crystal, DSC) it was 489.35 ± 0.8 K.
`CCCCCCCCN(CCCCCCCC)c1ccc(N=Nc2ccc(-c3ccc(C#N)c(C#N)c3)c(C#N)c2)cc1`: the mass density in data set [2] (296 K, Metastable crystal) amounted to 1124 ± 7 kg/m3. In addition, the Triple point temperature in data set [2] (Crystal 1, DSC) was 368.35 ± 0.8 K; in data set [2] (Metastable crystal, DSC), 365.05 ± 0.8 K.
With `N#Cc1cc([N+](=O)[O-])ccc1-c1ccc2c(c1)C(=O)NC2=O` [2-(1,3-dioxoisoindolin-5-yl)-5-nitrobenzonitrile], in data set [2] (Crystal, visual observation), the Triple point temperature was 567.15 ± 3 K.
As for `CCCCN(CCCC)c1ccc(N=Nc2ccc(-c3ccc(C#N)c(C#N)c3)c(C#N)c2)cc1`, the “Molar enthalpy of transition or fusion” value in data set [1] (Crystal 1) worked out at 8.39 ± 0.311 kcal/mol. The mass density in data set [2] (296 K, Crystal 1) is given as 1165 ± 6 kg/m3. The Triple point temperature in data set [2] (Crystal 1, DSC) was determined as 427.35 ± 0.8 K; in data set [2] (Metastable crystal, DSC), 403.45 ± 0.8 K. Further, in data set [2] (Glass, DSC), the Glass transition temperature is 42.00 ± 0.8 °C.
`CCCCN(CCCC)c1ccc(N=Nc2cccc(C#N)c2-c2ccc(C#N)c(C#N)c2)cc1`: the “Molar enthalpy of transition or fusion” value in data set [1] (Crystal 1) amounted to 8.48 ± 0.311 kcal/mol; in data set [1] (Crystal 2) it was 0.645 ± 0.0478 kcal/mol. Besides, the mass density in data set [2] (296 K, Crystal 2) was determined as 1180 ± 6 kg/m3. The Triple point temperature in data set [2] (Crystal 1, DSC) came to 469.05 ± 0.8 K; in data set [2] (Crystal 2, DSC), 386.25 ± 0.8 K.
Consider `CCCCN(CCCC)c1ccc(N=Nc2ccc(-c3ccc4c(c3)C(=O)NC4=O)c(C#N)c2)cc1`, for which the “Molar enthalpy of transition or fusion” value in data set [1] (Crystal 1) was 6.72 ± 0.239 kcal/mol; in data set [1] (Crystal 2), 0.621 ± 0.0478 kcal/mol. The mass density in data set [2] (200 K, Crystal 2) was found to be 1262 ± 7 kg/m3. For the same compound, the Triple point temperature in data set [2] (Crystal 1, DSC) is given as 456.85 ± 0.8 K; in data set [2] (Crystal 2, DSC) it was 436.45 ± 0.8 K.
With `N#Cc1ccc(-c2ccc([N+](=O)[O-])cc2C#N)cc1C#N` [4-nitro-[1,1'-biphenyl]-2,3',4'-tricarbonitrile], the Triple point temperature in data set [2] (Crystal, visual observation) stood at 472.15 ± 3 K.
Same read-out and setting: the value for `N#Cc1ccc(-c2ccc(N)cc2C#N)cc1C#N` [4-amino-[1,1'-biphenyl]-2,3',4'-tricarbonitrile] was 558.15 ± 3 K.
Same read-out and setting: then `N#Cc1cc(N)ccc1-c1ccc2c(c1)C(=O)NC2=O` [5-amino-2-(1,3-dioxoisoindolin-5-yl)benzonitrile], with 589.15 ± 3 K.
